{"source": "patent US20240425457A1", "about": "“COMPOSITIONS AND METHODS FOR SUPPRESSING AND/OR TREATING METABOLIC DISEASES AND/OR A CLINICAL CONDITION THEREOF” (CK Biotech Inc., priority 2018, published 2024)", "key": {"HFD-fed mice": {"system": "HFD-fed mice", "test": "HFD-induced obesity/diabetes mice, 5-day oral courses at weeks 8/9 and 12", "assay_type": "in vivo", "conditions": "for fasting glucose level: A3334, A3051, I3O 25, sitagliptin 50, metformin 100 mg/kg", "text": "Animals. The generation of Cxxc5^−/− mice has been described previously. Cxxc5 heterozygous mice were intercrossed for four generations to obtain littermate wild-type and Cxxc5^−/− mice and were maintained on a C57BL/6 background. Six-week-old Cxxc5^+/+ and Cxxc5^−/− mice were fed HFD for 8 weeks. Wild-type male C57BL/6 mice (KOATECH, Seoul, Korea) were fed HFD consisting of 60% calories from fat (Research Diet, D12492) for 8 weeks. To validate that the insulin resistance mouse model was successfully established, fasting glucose levels were assessed with a One Touch Ultra glucometer (LifeScan). Subsequently, each HFD-fed mouse with a fasting glucose level higher than 16.7 mmol/L was orally administered A3334 (25 mg kg^−1), sitagliptin (50 mg kg^−1), or metformin (100 mg kg^−1) each day for 5 days at weeks 8 and 12. After the removal of the drugs, mice were maintained for 3 weeks on the HFD. To monitor pancreas regeneration, six-week-old Cxxc5^+/+ and Cxxc5^−/− mice were fed an HFD as above. After dietary treatment for 4 weeks, the mice were intraperitoneally injected with STZ (50 mg/kg/d) for 1 week and the control group were injected with saline. After 2 weeks, Cxxc5^+/+ mice were administered A3334 (25 mg kg^−1) and sitagliptin (50 mg kg^−1) per day by oral gavage for 4 weeks. For GTT or ITT, mice were injected with D-glucose (1.5 g/kg body weight) after overnight starvation or human insulin (0.75 units/kg body weight) after 4 h starvation, respectively. Tail blood was drawn at 0, 15, 30, 60, 120, 180 min intervals and blood glucose level was measured with a One Touch Ultra glucometer. All mice were maintained under temperature-controlled and light-controlled (standard 12 h light/dark cycle) conditions and provided with food and water ad libitum. All protocols were reviewed and approved by the Institutional Review Board of Severance Hospital, Yonsei University College of Medicine (09-013).\nBlood chemistry. Total blood of mice was collected by cardiac puncture after fasting. The blood was allowed to clot for 30 min and was then centrifuged for 10 min at 1,000×g to obtain supernatant to measure metabolic parameters. ELISA assay kits were used to assess serum insulin (Millipore), serum FFA (Cayman Chemical), serum adiponectin (ABclonal). The insulin function test was evaluated by HOMA-IR and was calculated as fasting plasma glucose (m mol/l)×fasting serum insulin (mU/l)/22.5. Serum chemistry variables included total cholesterol, HDL-cholesterol, glucose, TG, ALT, AST, ALP, Ca, and Mg concentration. The calibration of serum parameters was performed using the quality control card supplied with the FUJI DRI-CHEM slides whenever slides from a new lot were used. […]\nHematoxylin and eosin (H&E) staining. Dissected tissues were fixed in 4% neutral paraformaldehyde and embedded in paraffin. The paraffin sections were cut at a thickness of 4 μm and subjected to H&E staining. The adipocyte cell size was measured in 20 randomly chosen microscopic areas from 3 independent animals using a Nikon bright-field optical microscope (Nikon TE-2000U). The average adipocyte size was determined using Image J software. […]\nMetabolic monitoring and body composition. Metabolic performance (energy intake and energy expenditure) was studied using a PHENOMASTER automated combined indirect calorimetry system (TSE system GmBH). The mice were first acclimated for 24 h in a metabolic chamber and were provided with food and water. They were then subsequently evaluated for 3 days to measure oxygen consumption (VO2), carbon dioxide production (VCO2), ambulatory counts, and respiratory exchange ratio. An LF50 body composition analyzer (Bruker) was used to determine body composition (lean body mass and total body fat) of the mice. The temperature for these studies remained at 22° C., with a 12 h light/dark cycle. Standard in-house software was used for energy expenditure.\nQuantitative real-time polymerase chain reaction (PCR). […]"}, "HFD-induced obese mice": {"system": "HFD-induced obese mice", "test": "HFD-induced obese mice, oral administration during 16 weeks of HFD", "assay_type": "in vivo", "conditions": "HFD 16 weeks", "method": "Anti-obesity effects of […], a small molecule […] inhibitor. Referring now to FIG. 34, C57BL/6N mice were fed HFD for 16 weeks with or without oral administration of 25 mpk […] or Orlistat. Orlistat is an anti-obesity drug that is thought to act by limiting the absorption of fats from the diet (e.g., a lipase inhibitor). […] Referring now to FIG. 35, The C57BL/6N mice were grown with HFD for 16 weeks with or without oral administration of 25 mpk of […], […], and I3O. […] The increase in adipocyte cell sizes and enhancement of inflammation (evaluated by crown like structures; blue; FIG. 35B) were suppressed by treatment with […] in the HFD mice."}, "[1]": {"conditions": "HFD mice, p.o. daily 5 days at weeks 8/9 and 12"}, "[2]": {"conditions": "HFD mice, 5-day courses at weeks 8/9 and 12, A3334 25 mg/kg, 25 mg/kg"}}, "note": "“Also recorded” adds a separate entry of the source."}
{"smiles": "CO/N=C1/C(=C2/C(=O)Nc3cc(Cl)c(Cl)cc32)Nc2ccccc21", "note": "[Compound A3051, 5,6-dichloroindirubin-3′-methoxime]", "values": [{"measurement": "fasting glucose level", "setting": "HFD-fed mice; [1]", "value": "also reduced fasting glucose. However, effects of A3051 and I3O is similar to or little bit weaker than SITA"}, {"measurement": "adipocyte cell size and inflammation (crown like structures)", "setting": "HFD-induced obese mice; 25 mpk oral", "value": "showed reduction in adipocyte size and anti-inflammatory effects, but those effects were lower when compared to that of the A3334 treatment"}]}
{"smiles": "COc1ccc2c(c1)/C(=C1/Nc3ccccc3/C1=N\\O)C(=O)N2", "note": "[Compound A3334, 5-Methoxyindirubin-3′-oxime]", "values": [{"measurement": "thermogenesis and beige-fat markers in scWAT", "setting": "HFD-fed mice; HFD (DIO) mice", "value": "exhibited elevated thermogenesis and beige-fat markers"}, {"measurement": "Ca++ and Mg++ levels in serum", "setting": "HFD-fed mice; HFD mice", "value": "without any effect on Ca^++ and Mg^++ imbalance; also recorded: not significantly changed"}, {"measurement": "F4/80+ and CD11b+ cells / inflammation in adipose tissue", "setting": "HFD-fed mice; HFD mice", "value": "the populations of F4/80^+ and CD11b^+ cells decreased; also recorded: also suppressed by A3334"}, {"measurement": "energy expenditure and activity", "setting": "HFD-fed mice; HFD mice", "value": "increases energy expenditure via enhancing brown- and beige-fat activation; also recorded: higher energy expenditure and more active behavior than vehicle-treated mice"}, {"measurement": "mRNA of M1 and M2 macrophage marker genes in epiWAT", "setting": "HFD-fed mice; HFD mice", "value": "decreased and increased in the epiWAT of A3334-treated mice, respectively"}, {"measurement": "respiratory exchange ratio", "setting": "HFD-fed mice; HFD mice", "value": "lower respiratory exchange ratio"}, {"measurement": "serum ALT, AST, FFA (and TG)", "setting": "HFD-fed mice; HFD mice", "value": "mostly suppressed by the A3334 treatment; also recorded: reduced by A3334; also recorded: also lowered by A3334; also recorded: significantly lowered by A3334"}, {"measurement": "transition of brown adipocytes to white adipocytes, UCP1 and GLUT4", "setting": "HFD-fed mice; HFD mice", "value": "suppressed by the A3334 treatment together with recovery of the levels of UCP1 and GLUT4"}, {"measurement": "serum adiponectin level", "setting": "HFD-fed mice; HFD mice (FIG. 38G)", "value": "increased by A3334"}, {"measurement": "glucose tolerance and insulin tolerance (GTT/ITT)", "setting": "HFD-fed mice; [2]", "value": "significantly improved the systemic glucose tolerance and insulin resistance; also recorded: most significantly reduced by A3334"}, {"measurement": "insulin resistance (fasting insulin, HOMA-IR)", "setting": "HFD-fed mice; [2]", "value": "improves diet-induced obesity and insulin resistance; also recorded: improved insulin resistance; also recorded: reduced by A3334; also recorded: mostly resolved by A3334 administration"}, {"measurement": "body weight and food intake", "setting": "HFD-fed mice; HFD mice, A3334 25 mg/kg", "value": "the body weights were decreased without significant changes in food intake"}, {"measurement": "fat mass (body composition, tissue weights)", "setting": "HFD-fed mice; HFD mice, A3334 25 mg/kg", "value": "reduction of overall fat mass"}, {"measurement": "levels of GTT/ITT, total cholesterol, fasting glucose, triglyceride, FFAs in serum", "setting": "HFD-fed mice; HFD mice, A3334 25, metformin 100, sitagliptin 50 mpk (FIG. 38B-38F)", "value": "most significantly reduced by A3334"}, {"measurement": "hepatic steatosis (lipid droplets, fatty liver, hepatic TG)", "setting": "HFD-fed mice; HFD mice, H&E, Oil Red O", "value": "did not form lipid droplets with a reduction in the hepatic TG levels; also recorded: totally abolished by the A3334 treatment; also recorded: suppressed by A3334"}, {"measurement": "Cxxc5 and β-catenin expression in epiWAT", "setting": "HFD-fed mice; HFD mice, IHC", "value": "Cxxc5 expression was mostly abolished and only a small amount remained in the nucleus with the elevation of nuclear β-catenin"}, {"measurement": "UCP1 protein level in BAT and scWAT", "setting": "HFD-fed mice; HFD mice, IHC", "value": "the protein level increment of the major thermogenin uncoupling protein 1 (UCP1) was confirmed in BAT and scWAT"}, {"measurement": "crown-like structures and adipocyte size in white adipose tissue", "setting": "HFD-fed mice; HFD mice, epiWAT/WAT, H&E", "value": "significantly decreased the number of CLSs as well as the size of adipocytes; also recorded: suppressed HFD-induced increase in cell size and the expression of PPARγ and C/EBPα; also recorded: inhibited by the A3334 treatment"}, {"measurement": "oxygen consumption (VO2) and carbon dioxide production (VCO2)", "setting": "HFD-fed mice; HFD mice, light and dark periods", "value": "consumed higher oxygen (VO2) and exhaled more carbon dioxide (VCO2)"}, {"measurement": "Wnt/β-catenin signaling target genes in liver", "setting": "HFD-fed mice; HFD mice, mRNA", "value": "induction of Wnt/β-catenin signaling target genes; also recorded: significantly increased by A3334 treatment"}, {"measurement": "Wnt/β-catenin target genes and lipogenesis/inflammation genes in white adipose tissue", "setting": "HFD-fed mice; HFD mice, mRNA", "value": "upregulated with the regression of the lipogenesis genes; also recorded: significantly lowered by the A3334 treatment"}, {"measurement": "lipogenesis and gluconeogenesis genes in liver", "setting": "HFD-fed mice; HFD mice, mRNA", "value": "repressed in the liver of A3334-treated mice; also recorded: significantly lowered by the A3334 treatment; also recorded: reduced by both A3334 and SITA, but A3334 showed better effectiveness"}, {"measurement": "thermogenesis / mitochondria biogenesis markers in BAT", "setting": "HFD-fed mice; HFD mice, mRNA", "value": "significantly elevated expression levels of the key thermogenesis markers; also recorded: all increased by the A3334 treatment"}, {"measurement": "persistence of fasting glucose control after end of treatment", "setting": "HFD-fed mice; HFD mice, p.o. daily 5 days at weeks 8/9 and 12, A3334 25, sitagliptin 50, metformin 100 mg/kg", "value": "prolonged effectiveness for the control of fasting glucose levels; also recorded: unexpected long-lasting glucose controlling effect; also recorded: long lasting effect in suppression of fast glucose level; also recorded: most significant and long last effects on fasting glucose control effect"}, {"measurement": "fasting glucose level", "setting": "HFD-fed mice; [1]", "value": "lower in the A3334 treatment than in the sitagliptin and metformin treatment groups; also recorded: reduced similarly by treatment with all of these compounds at initial applications"}, {"measurement": "endocrine and metabolic parameters: total cholesterol, HDL-cholesterol, TG, adiponectin", "setting": "HFD-fed mice; HFD mice, plasma, overnight fasted", "value": "much better effects than sitagliptin- and metformin-treated mice"}, {"measurement": "secretory proteins/adipokines, protein chip", "setting": "HFD-fed mice; HFD mice, serum", "value": "decreased the expression levels of various secretory proteins"}, {"measurement": "HFD-induced body weight gain and abdominal obesity", "setting": "HFD-induced obese mice; 25 mpk oral", "value": "not observed in the HFD mice treated with A3334"}, {"measurement": "adipocyte cell size and inflammation (crown like structures)", "setting": "HFD-induced obese mice; 25 mpk oral", "value": "suppressed by treatment with A3334"}, {"measurement": "fatty liver and white adipocyte tissue", "setting": "HFD-induced obese mice; 25 mpk oral", "value": "suppression of fatty liver and white adipocyte tissue"}, {"measurement": "glucose tolerance (GTT) and insulin tolerance (ITT)", "setting": "HFD-induced obese mice; 25 mpk oral", "value": "significantly improved by the A3334 treatment"}, {"measurement": "triglyceride, total cholesterol, HDL-cholesterol", "setting": "HFD-induced obese mice; 25 mpk oral", "value": "significantly reduced the level of triglyceride and total cholesterol and increased the level of HDL-cholesterol"}, {"measurement": "inhibitory effect on weight gain compared with orlistat", "setting": "HFD-induced obese mice; both 25 mpk", "value": "much more significant than the effects observed in the HFD mice treated with orlistat"}]}
